From ChEMBL document CHEMBL4396926, “Design, Synthesis and Anticancer Evaluation of New Substituted Thiophene-Quinoline Derivatives” (Bioorg Med Chem, 2019)
Blank lines part the entries; values can stand above or below the compound they belong to.

Experiments:
[1] = tested on: HepG2; assay: Cytotoxicity against human HepG2 cells assessed as cell growth inhibition at 3.125 to 100 uM incubated for 72 hrs and measured after 2 hrs by microplate reader based WST-1 assay relative to control; type: functional
[2] = tested on: HeLa; assay: Cytotoxicity against human HeLa cells assessed as cell growth inhibition at 3.125 to 100 uM incubated for 72 hrs and measured after 2 hrs by microplate reader based WST-1 assay relative to control; type: functional
[3] = tested on: HCT-116; assay: Cytotoxicity against human HCT116 cells assessed as cell growth inhibition at 3.125 to 100 uM incubated for 72 hrs and measured after 2 hrs by microplate reader based WST-1 assay relative to control; type: functional
[4] = tested on: MCF7; assay: Cytotoxicity against human MCF7 cells assessed as cell growth inhibition at 3.125 to 100 uM incubated for 72 hrs and measured after 2 hrs by microplate reader based WST-1 assay relative to control; type: functional
[5] = tested on: HepG2; assay: Cytotoxicity against human HepG2 cells assessed as increase in growth inhibition by measuring decrease in cell viability incubated for 72 hrs and measured after 2 hrs by microplate reader based WST-1 assay; type: functional
[6] = tested on: HeLa; assay: Cytotoxicity against human HeLa cells assessed as increase in growth inhibition by measuring decrease in cell viability incubated for 72 hrs and measured after 2 hrs by microplate reader based WST-1 assay; type: functional
[7] = tested on: HCT-116; assay: Cytotoxicity against human HCT116 cells assessed as increase in growth inhibition by measuring decrease in cell viability incubated for 72 hrs and measured after 2 hrs by microplate reader based WST-1 assay; type: functional
[8] = tested on: MCF7; assay: Cytotoxicity against human MCF7 cells assessed as increase in growth inhibition by measuring decrease in cell viability incubated for 72 hrs and measured after 2 hrs by microplate reader based WST-1 assay; type: functional; conditions: Homo sapiens, MCF7; read-out: IC50
[9] = biological target: T1, Epidermal growth factor receptor (Homo sapiens, UniProt P00533); assay: Inhibition of EGFR-TK in human HeLa cells overexpressing EGFR incubated for 18 to 24 hrs by kinase assay; type: cell-based
[10] = tested on: HeLa; assay: Induction of apoptosis in human HeLa cells assessed as increase in caspase 3 activation by measuring fold increase in caspase 3 level by fluorescence based solid phase sandwich ELISA; type: functional
[11] = tested on: HeLa; assay: Induction of apoptosis in human HeLa cells assessed as increase in caspase 9 activation by measuring fold increase in caspase 9 level by fluorescence based solid phase sandwich ELISA; type: functional
[12] = biological target: T2, DNA topoisomerase II (Homo sapiens, UniProt P11388+Q02880); assay: Inhibition of DNA topoisomerase 2 in human HeLa cells at 25 uM incubated for 18 to 24 hrs by kinase assay relative to control; type: cell-based
[13] = biological target: T2, DNA topoisomerase II; assay: Inhibition of DNA topoisomerase 2 in human HeLa cells at 5 uM incubated for 18 to 24 hrs by kinase assay relative to control; type: cell-based
[14] = biological target: T2, DNA topoisomerase II; assay: Inhibition of DNA topoisomerase 2 in human HeLa cells at 1 uM incubated for 18 to 24 hrs by kinase assay relative to control; type: cell-based
[15] = biological target: T2, DNA topoisomerase II; assay: Inhibition of DNA topoisomerase 2 in human HeLa cells at 0.2 uM incubated for 18 to 24 hrs by kinase assay relative to control; type: cell-based
[16] = biological target: T2, DNA topoisomerase II; assay: Inhibition of DNA topoisomerase 2 in human HeLa cells incubated for 18 to 24 hrs by kinase assay; type: cell-based
[17] = biological target: T1, Epidermal growth factor receptor; assay: Inhibition of EGFR-TK in human MCF7 cells overexpressing EGFR incubated for 18 to 24 hrs by kinase assay; type: cell-based
[18] = tested on: MCF7; assay: Induction of apoptosis in human MCF7 cells assessed as increase in caspase 3 activation by measuring fold increase in caspase 3 level by fluorescence based solid phase sandwich ELISA; type: functional
[19] = tested on: MCF7; assay: Induction of apoptosis in human MCF7 cells assessed as increase in caspase 9 activation by measuring fold increase in caspase 9 level by fluorescence based solid phase sandwich ELISA; type: functional
[20] = tested on: MCF7; assay: Cell cycle arrest in human MCF7 cells assessed as accumulation at G0/G1 phase at IC50 after 24 hrs by propidium iodide staining based FACS analysis (reference value: 67.39%); type: functional
[21] = tested on: MCF7; assay: Cell cycle arrest in human MCF7 cells assessed as accumulation at S phase at IC50 after 24 hrs by propidium iodide staining based FACS analysis (reference value: 27.13%); type: functional
[22] = tested on: MCF7; assay: Cell cycle arrest in human MCF7 cells assessed as accumulation at G2/M phase at IC50 after 24 hrs by propidium iodide staining based FACS analysis (reference value: 4.82%); type: functional
[23] = tested on: MCF7; assay: Cell cycle arrest in human MCF7 cells assessed as accumulation at pre G1/apoptotic phase at IC50 after 24 hrs by propidium iodide staining based FACS analysis (reference value: 0.66%); type: functional
[24] = tested on: MCF7; assay: Induction of apoptosis in human MCF7 cells after 24 hrs by Annexin V-FITC/propidium iodide staining-based FACS analysis; type: functional, cell-based
[25] = tested on: MCF7; assay: Induction of apoptosis in human MCF7 cells assessed as viable cells after 24 hrs by Annexin V-FITC/propidium iodide staining-based FACS analysis (reference value: 99.34%); type: functional
[26] = tested on: MCF7; assay: Induction of apoptosis in human MCF7 cells assessed as early apoptotic cells after 24 hrs by Annexin V-FITC/propidium iodide staining-based FACS analysis (reference value: 0.29%); type: functional
[27] = tested on: MCF7; assay: Induction of apoptosis in human MCF7 cells assessed as late apoptotic cells after 24 hrs by Annexin V-FITC/propidium iodide staining-based FACS analysis (reference value: 0.22%); type: functional
[28] = tested on: MCF7; assay: Induction of apoptosis in human MCF7 cells assessed as necrotic cells after 24 hrs by Annexin V-FITC/propidium iodide staining-based FACS analysis (reference value: 0.15%); type: functional
[29] = biological target: T2, DNA topoisomerase II; assay: Inhibition of DNA topoisomerase 2 in human MCF7 cells at 25 uM incubated for 18 to 24 hrs by kinase assay relative to control; type: cell-based
[30] = biological target: T2, DNA topoisomerase II; assay: Inhibition of DNA topoisomerase 2 in human MCF7 cells at 1 uM incubated for 18 to 24 hrs by kinase assay relative to control; type: cell-based
[31] = biological target: T2, DNA topoisomerase II; assay: Inhibition of DNA topoisomerase 2 in human MCF7 cells at 0.2 uM incubated for 18 to 24 hrs by kinase assay relative to control; type: cell-based
[32] = biological target: T2, DNA topoisomerase II; assay: Inhibition of DNA topoisomerase 2 in human MCF7 cells incubated for 18 to 24 hrs by kinase assay; type: cell-based
[33] = biological target: T2, DNA topoisomerase II; assay: Inhibition of DNA topoisomerase 2 in human MCF7 cells at 5 uM incubated for 18 to 24 hrs by kinase assay relative to control; type: cell-based
[34] = Homo sapiens, HeLa, read-out: IC50

T1 sequence (P00533 whole entry): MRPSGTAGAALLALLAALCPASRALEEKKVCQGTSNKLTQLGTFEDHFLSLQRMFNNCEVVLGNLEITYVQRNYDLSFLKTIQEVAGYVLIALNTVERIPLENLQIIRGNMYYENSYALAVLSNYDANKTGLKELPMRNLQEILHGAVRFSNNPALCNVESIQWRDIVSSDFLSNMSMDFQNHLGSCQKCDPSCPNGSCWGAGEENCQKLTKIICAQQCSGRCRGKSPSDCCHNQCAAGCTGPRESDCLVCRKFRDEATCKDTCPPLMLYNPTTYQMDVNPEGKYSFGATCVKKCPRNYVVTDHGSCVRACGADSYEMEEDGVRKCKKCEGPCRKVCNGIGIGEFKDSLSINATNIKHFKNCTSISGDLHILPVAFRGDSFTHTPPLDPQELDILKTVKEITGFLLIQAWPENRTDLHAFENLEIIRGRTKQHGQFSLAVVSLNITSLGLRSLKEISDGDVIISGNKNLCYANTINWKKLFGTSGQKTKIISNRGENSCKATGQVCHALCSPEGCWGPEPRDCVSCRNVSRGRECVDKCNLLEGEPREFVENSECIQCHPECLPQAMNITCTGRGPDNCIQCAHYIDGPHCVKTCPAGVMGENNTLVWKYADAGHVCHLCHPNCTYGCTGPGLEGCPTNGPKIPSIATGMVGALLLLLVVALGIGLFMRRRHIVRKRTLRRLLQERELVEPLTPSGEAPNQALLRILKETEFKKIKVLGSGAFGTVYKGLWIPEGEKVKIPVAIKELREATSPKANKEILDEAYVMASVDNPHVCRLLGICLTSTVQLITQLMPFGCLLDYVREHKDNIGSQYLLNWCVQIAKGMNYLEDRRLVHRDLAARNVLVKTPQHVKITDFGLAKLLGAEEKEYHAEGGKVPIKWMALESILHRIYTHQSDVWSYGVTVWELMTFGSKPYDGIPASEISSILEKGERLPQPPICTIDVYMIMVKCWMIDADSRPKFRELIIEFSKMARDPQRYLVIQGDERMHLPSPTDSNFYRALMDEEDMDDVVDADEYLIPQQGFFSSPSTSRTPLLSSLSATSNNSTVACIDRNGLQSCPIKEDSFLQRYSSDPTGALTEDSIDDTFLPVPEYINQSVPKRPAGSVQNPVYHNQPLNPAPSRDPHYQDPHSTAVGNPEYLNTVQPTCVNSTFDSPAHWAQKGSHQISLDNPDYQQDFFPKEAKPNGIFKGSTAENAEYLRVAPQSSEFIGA

Compound: Cc1cc(C)c(COC(c2cccs2)c2cc3ccccc3nc2Cl)c(C)c1 (stereo not given)
growth inhibition (GI) [1]: 24.76%
growth inhibition (GI) [2]: 42.48%
growth inhibition (GI) [3]: 26.37%
growth inhibition (GI) [4]: 21.49%

IC50 [9]: 6.3 µM
inhibition [12]: 80.7%
inhibition [13]: 45%
inhibition [14]: 20%
inhibition [15]: 3.85%
IC50 [16]: 4.95 µM
Compound: OC(c1cccs1)c1cc2ccccc2nc1Cl (stereo not given)
IC50 ([5]; Homo sapiens, HepG2, read-out: IC50): 80.8 µM
IC50 [6, 34]: 17.5 µM
IC50 ([7]; Homo sapiens, HCT-116, read-out: IC50): 69.3 µM
IC50 [8]: 80.6 µM
fold change (FC) [10]: 12.8
fold change (FC) [11]: 72.6

IC50 [17]: 2.75 µM
inhibition [29]: 93.7%
inhibition [30]: 70.8%
inhibition [31]: 43.3%
IC50 [32]: 0.23 µM
inhibition [33]: 88.5%
Compound: Fc1ccc(COC(c2cccs2)c2cc3ccccc3nc2Cl)cc1 (stereo not given)
growth inhibition (GI) [1]: 30.53%
growth inhibition (GI) [2]: 66.21%
growth inhibition (GI) [3]: <10%
growth inhibition (GI) [4]: 64.97%
IC50 ([5]; hepg2): Not Active
IC50 [6, 34]: 73.9 µM
IC50 ([7]; hct-116): Not Active
IC50 [8]: 38.4 µM
fold change (FC) [18]: 30.8
fold change (FC) [19]: 40.6
Activity [20]: 47.2%
Activity [21]: 17.19%
Activity [22]: 19.33%
Activity [23]: 16.28%
Activity [24]: Dose-dependent effect
Activity [25]: 83.96%
Activity [26]: 7.03%
Activity [27]: 8.42%
Activity [28]: 0.83%

IC50 [17]: 3.66 µM
inhibition [29]: 93.2%
inhibition [30]: 63.3%
inhibition [31]: 36.3%
IC50 [32]: 0.44 µM
inhibition [33]: 84.7%
Compound: Clc1ccc(COC(c2cccs2)c2cc3ccccc3nc2Cl)cc1 (stereo not given)
growth inhibition (GI) [1]: <10%
growth inhibition (GI) [2]: 30.41%
growth inhibition (GI) [3]: <10%
growth inhibition (GI) [4]: 47.94%
IC50 ([5]; hepg2): Not Active
IC50 ([6]; hela): Not Active
IC50 ([7]; hct-116): Not Active
IC50 [8]: 28.3 µM
fold change (FC) [18]: 33.7
fold change (FC) [19]: 29
Activity [20]: 44.28%
Activity [21]: 15.35%
Activity [22]: 23.14%
Activity [23]: 17.05%
Activity [24]: Dose-dependent effect
Activity [25]: 82.72%
Activity [26]: 6.69%
Activity [27]: 8.67%
Activity [28]: 1.6%

Compound: Clc1nc2ccccc2cc1C(OCc1ccccc1)c1cccs1 (stereo not given)
growth inhibition (GI) [1]: <10%
growth inhibition (GI) [2]: <10%
growth inhibition (GI) [3]: <10%
growth inhibition (GI) [4]: 45.63%
IC50 ([5]; hepg2): Not Active
IC50 ([6]; hela): Not Active
IC50 ([7]; hct-116): Not Active
IC50 [8]: 108 µM

inhibition [14]: 66.5%
inhibition [15]: 32%
IC50 [16]: 0.73 µM
inhibition [29]: 92.8%
IC50 [32]: 0.48 µM
inhibition [33]: 85.6%
Compound: CC[C@@]1(O)C(=O)OCc2c1cc1n(c2=O)Cc2cc3c(CN(C)C)c(O)ccc3nc2-1 [TOPOTECAN]

Compound: Cc1ccc(-n2cc(COC(c3cccs3)c3cc4ccccc4nc3Cl)nn2)cc1 (stereo not given)
growth inhibition (GI) [1]: 18.78%
growth inhibition (GI) [2]: <10%
growth inhibition (GI) [3]: 13.03%
growth inhibition (GI) [4]: <10%

Compound: COc1ccc(-c2cc(COC(c3cccs3)c3cc4ccccc4nc3Cl)on2)cc1OC (stereo not given)
growth inhibition (GI) [1]: <10%
growth inhibition (GI) [2]: <10%
growth inhibition (GI) [3]: <10%
growth inhibition (GI) [4]: <10%

Compound: Cc1cc(C)cc(-c2cc(COC(c3cccs3)c3cc4ccccc4nc3Cl)on2)c1 (stereo not given)
growth inhibition (GI) [1]: <10%
growth inhibition (GI) [2]: <10%
growth inhibition (GI) [3]: <10%
growth inhibition (GI) [4]: <10%

Compound: O=[N+]([O-])c1ccc(-n2cc(COC(c3cccs3)c3cc4ccccc4nc3Cl)nn2)cc1 (stereo not given)
growth inhibition (GI) [1]: <10%
growth inhibition (GI) [2]: <10%
growth inhibition (GI) [3]: <10%
growth inhibition (GI) [4]: <10%

Compound: Clc1ccc(-n2cc(COC(c3cccs3)c3cc4ccccc4nc3Cl)nn2)cc1 (stereo not given)
growth inhibition (GI) [1]: 8.39%
growth inhibition (GI) [2]: <10%
growth inhibition (GI) [3]: 23.13%
growth inhibition (GI) [4]: <10%
